Where two headings read alike, the source gives them in different places.

The target in this experiment is PKC delta kinase (Homo sapiens, UniProt Q05655). The experiment is described as follows: PKC Delta coupled-enzyme kinase assay. The experiment is classed as biochemical. The procedure:
An assay buffer solution was prepared which consisted of 100 mM HEPES (pH 7.5), 10 mM MgCl2, 25 mM NaCl, 0.1 mM EDTA and 0.01% Brij. […] To 16 μL of this enzyme buffer, in a 384 well plate, was added 1 μL of VRT stock solution in DMSO. The mixture was allowed to equilibrate for 10 mins at 30° C. […] Ki values were calculated from initial rate data by non-linear regression using the Prism software package (Prism 4.0a, Graphpad Software, San Diego, Calif.).

The mark [1] stands for this setting: 46 nM PKC delta, 150 μM ATP, 30° C., read-out: Ki PKC delta.

Sequence of PKC delta kinase (Q05655 whole entry): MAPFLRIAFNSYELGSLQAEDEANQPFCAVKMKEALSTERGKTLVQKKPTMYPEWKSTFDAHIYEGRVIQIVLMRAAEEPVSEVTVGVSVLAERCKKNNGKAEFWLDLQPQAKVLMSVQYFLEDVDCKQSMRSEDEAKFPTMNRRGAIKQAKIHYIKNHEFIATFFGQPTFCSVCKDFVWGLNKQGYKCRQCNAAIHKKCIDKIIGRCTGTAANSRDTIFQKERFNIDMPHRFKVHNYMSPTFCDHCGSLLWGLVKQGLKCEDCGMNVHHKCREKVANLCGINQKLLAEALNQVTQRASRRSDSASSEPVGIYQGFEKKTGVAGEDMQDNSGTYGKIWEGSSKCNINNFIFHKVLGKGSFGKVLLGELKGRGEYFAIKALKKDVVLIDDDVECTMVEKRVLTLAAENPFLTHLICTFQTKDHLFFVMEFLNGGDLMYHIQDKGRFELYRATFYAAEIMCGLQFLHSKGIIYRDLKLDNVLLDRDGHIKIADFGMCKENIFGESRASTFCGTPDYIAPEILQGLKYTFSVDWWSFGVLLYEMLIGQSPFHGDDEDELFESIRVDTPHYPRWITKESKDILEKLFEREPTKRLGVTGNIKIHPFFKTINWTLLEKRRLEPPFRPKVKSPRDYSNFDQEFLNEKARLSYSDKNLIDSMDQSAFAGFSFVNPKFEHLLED

As to `Nc1ncccc1C(=O)c1nc(N2CCNCC2)ccc1C(F)(F)F` [compound 316], the Ki under setting [1] fell in the range of 50 to 500 nM. The same measure, in the same setting: with `Nc1ncc(-c2cccs2)cc1C(=O)c1cccc(N2CCNC(c3ccccc3)C2)n1` (centres unmarked) [compound 263] the figure was 50 to 500 nM. Still for that read-out and setting: with `COc1cccc(C2CN(c3ccc(C(F)(F)F)c(C(=O)c4cccnc4N)n3)CCN2)c1` (centres unmarked) [compound 397] the figure was 50 to 500 nM.

For the compound `Nc1ncccc1C(=O)c1cccc(N2CCC(N)CC2)n1` [compound 86], the Ki lay in the range of 50 to 500 nM. `N#Cc1ccc(-c2cnc(N)c(C(=O)c3cccc(N4CCNC(c5ccccc5)C4)n3)c2)cc1` (centres unmarked) [compound 271]: under setting [1], the Ki lay in the range of 50 to 500 nM. Take `Cc1cccc(C2CN(c3cccc(C(=O)c4cccnc4N)n3)CCN2)c1` (centres unmarked) [compound 335]: the Ki under setting [1] lay in the range of 50 to 500 nM. `Nc1ncc(-c2ccc[nH]2)cc1C(=O)c1cccc(N2CCCNCC2)n1` [compound 183]: the Ki under setting [1] fell in the range of 50 to 500 nM. On the same count and under the same terms, with `Nc1ncccc1C(=O)c1cccc(N2CCN3CCCC3C2)n1` (single isomer, unassigned) [compound 211] the figure was 50 to 500 nM; with `Cc1ccc(-c2cnc(N)c(C(=O)c3cccc(N4CCCNCC4)n3)c2)cc1` [compound 59], 50 to 500 nM. Turning to `CC(C)C[C@H]1CN(c2cccc(C(=O)c3cc(-c4ccccc4)cnc3N)n2)CCN1` [compound 239], the Ki under setting [1] was in the range of 500 to 2800 nM. In the case of `CC1CN(c2cccc(C(=O)c3cccnc3N)n2)C(C)CN1` (centres unmarked) [compound 222], the Ki under setting [1] is 50 to 500 nM.

For `Nc1cccc(-c2cnc(N)c(C(=O)c3cccc(N4CCCNCC4)n3)c2)c1` [compound 169], under setting [1], the Ki is 50 to 500 nM. On to `COc1ccccc1C1CN(c2cccc(C(=O)c3cccnc3N)n2)CCN1` (centres unmarked) [compound 296], for which the Ki under setting [1] was 50 to 500 nM.

Turning to `CC(C)C[C@H]1CN(c2cccc(C(=O)c3cccnc3N)n2)CCN1C(=O)CC(F)(F)F` [compound 219], under setting [1], the Ki is greater than 2800 nM. Turning to `Nc1ncccc1C(=O)c1cccc(N2CCNC(c3ccc(Cl)c(Cl)c3)C2)n1` (centres unmarked) [compound 313], the Ki under setting [1] was in the range of 50 to 500 nM. With `Nc1ncc(-c2cc[nH]c2)cc1C(=O)c1cccc(N2CCNC(c3ccccc3)C2)n1` (centres unmarked) [compound 289], the Ki under setting [1] lay within 50 to 500 nM.

Take `Nc1ncccc1C(=O)c1cccc(N2CCCN(C(=O)CC3CC3)CC2)n1` [compound 35]: the Ki under setting [1] is greater than 2800 nM. Still for that read-out and setting: with `COc1ccccc1-c1cnc(N)c(C(=O)c2cccc(N3CCNC(c4ccccc4)C3)n2)c1` (centres unmarked) [compound 284] the figure was 50 to 500 nM; with `Nc1ncc(Br)cc1C(=O)c1cccc(N2CCNCC2)n1` [compound 195], 50 to 500 nM. Same read-out and setting: with `C[C@H]1CNCCN1c1cccc(C(=O)c2cccnc2N)n1` [compound 228] the figure was 50 to 500 nM; with `Cc1ccc(N2CCNC(c3ccccc3)C2)nc1C(=O)c1cccnc1N` (centres unmarked) [compound 252], 50 to 500 nM; with `CC(C)C(=O)N1CCCN(c2cccc(C(=O)c3cccnc3N)n2)CC1` [compound 34], 500 to 2800 nM. As for `Nc1ncc(/C=C/c2ccccc2)cc1C(=O)c1cccc(N2CCNC(c3ccccc3)C2)n1` (centres unmarked) [compound 290], the Ki under setting [1] was in the range of 50 to 500 nM. On to `Cc1cccc(-c2cnc(N)c(C(=O)c3cccc(N4CCCNCC4)n3)c2)c1` [compound 182], for which the Ki under setting [1] lay in the range of 50 to 500 nM. `CC(C)C[C@H](N)CNc1ccc(C(F)(F)F)c(C(=O)c2cccnc2N)n1` [compound 396]: under setting [1], the Ki was 50 to 500 nM. As to `Nc1ncc(-c2ccccc2)cc1C(=O)c1cccc(N2CCNC(c3ccccc3)C2)n1` (centres unmarked) [compound 262], the Ki under setting [1] is 500 to 2800 nM. On the same count and under the same terms, with `Nc1ncccc1C(=O)c1cccc(N2CCCN(C(=O)CCC(F)(F)F)CC2)n1` [compound 31] the figure was 500 to 2800 nM. Turning to `CC(C)(C)[C@H]1CN(c2cccc(C(=O)c3cccnc3N)n2)CCN1` [compound 225], the Ki lay in the range of 50 to 500 nM. On to `Nc1ncccc1C(=O)c1cccc(N2CCNC(c3ccc(F)cc3)C2)n1` (centres unmarked) [compound 295], for which, under setting [1], the Ki was 50 to 500 nM. As to `CC(C)C[C@H](N)COc1ccc(C(F)(F)F)c(C(=O)c2cccnc2N)n1` [compound 406], the Ki under setting [1] was 50 to 500 nM.

For `Nc1ncccc1C(=O)c1cccc(-c2c[nH]c3ccccc23)n1` [compound 294], the Ki under setting [1] was greater than 2800 nM. As to `N#Cc1cccc(-c2cnc(N)c(C(=O)c3cccc(N4CCNC(c5ccccc5)C4)n3)c2)c1` (centres unmarked) [compound 270], the Ki under setting [1] fell in the range of 50 to 500 nM. With `C=Cc1cnc(N)c(C(=O)c2cccc(N3CCN[C@@H](CC(C)C)C3)n2)c1` [compound 233], the Ki under setting [1] lay within 50 to 500 nM. Consider `Nc1ncc(C2CC2)cc1C(=O)c1cccc(N2CCCNCC2)n1` [compound 154], for which the Ki under setting [1] fell in the range of 50 to 500 nM. As to `Nc1ncc(-c2ccsc2)cc1C(=O)c1cccc(N2CCCNCC2)n1` [compound 201], under setting [1], the Ki lay in the range of 50 to 500 nM. `Nc1ncc(Br)cc1C(=O)c1cccc(N2CCCN(C(=O)c3ccccc3C(F)(F)F)CC2)n1` [compound 150]: the Ki under setting [1] was in the range of 50 to 500 nM. Turning to `COc1cccc(-c2cnc(N)c(C(=O)c3cccc(N4CCCNCC4)n3)c2)c1` [compound 181], the Ki under setting [1] was 50 to 500 nM. As for `CN(C)c1cccc(-c2cccc(C(=O)c3cccnc3N)n2)c1` [compound 293], the Ki under setting [1] was greater than 2800 nM. Turning to `Nc1ncccc1C(=O)c1nc(N2CCCNCC2)ccc1Cl` [compound 324], the Ki under setting [1] lay in the range of 50 to 500 nM. On the same count and under the same terms, with `Nc1ncc(-c2csc3ccccc23)cc1C(=O)c1cccc(N2CCNC(c3ccccc3)C2)n1` (centres unmarked) [compound 266] the figure was 500 to 2800 nM. For the compound `Cc1cc(C)c(CC2CN(c3cccc(C(=O)c4cccnc4N)n3)CCN2)c(C)c1` (centres unmarked) [compound 244], the Ki under setting [1] is greater than 2800 nM. Consider `Nc1ncc(Br)cc1C(=O)c1nc(N2CCNC(c3ccccc3)C2)ccc1Cl` (centres unmarked) [compound 331], for which, under setting [1], the Ki fell in the range of 50 to 500 nM. With `CC(C)[C@@H]1CNCCN1c1cccc(C(=O)c2cccnc2N)n1` [compound 237], the Ki under setting [1] lay in the range of 50 to 500 nM. Same read-out and setting: with `N#Cc1cnc(N)c(C(=O)c2cccc(N3CCCNCC3)n2)c1` [compound 302] the figure was 500 to 2800 nM; with `Nc1ncc(-c2cccc(O)c2)cc1C(=O)c1cccc(N2CCCNCC2)n1` [compound 172], 50 to 500 nM. In the case of `CC1(C)CN(c2cccc(C(=O)c3cccnc3N)n2)CCN1` [compound 226], the Ki lay in the range of 50 to 500 nM.

Regarding `Nc1ncc(-c2ccc(O)cc2)cc1C(=O)c1cccc(N2CCCNCC2)n1` [compound 171], the Ki under setting [1] fell in the range of 50 to 500 nM. On to `Nc1ncc(-c2cc[nH]c2)cc1C(=O)c1cccc(N2CCCNCC2)n1` [compound 199], for which the Ki under setting [1] is 50 to 500 nM. Take `CC(C)C[C@H]1CN(c2cccc(C(=O)c3cc(Br)cnc3N)n2)CCN1` [compound 232]: under setting [1], the Ki was in the range of 50 to 500 nM. With `Nc1ncc(-c2cc3ccccc3s2)cc1C(=O)c1cccc(N2CCNC(c3ccccc3)C2)n1` (centres unmarked) [compound 265], the Ki under setting [1] was in the range of 500 to 2800 nM. As for `Cc1cnc(N)c(C(=O)c2cccc(N3CCCNCC3)n2)c1` [compound 155, (6-(1,4-diazepan-1-yl)pyridin-2-yl)(2-amino-5-methylpyridin-3-yl)methanone bis(2,2,2-trifluoroacetate)], under setting [1], the Ki was in the range of 500 to 2800 nM.

Turning to `Nc1ncccc1C(=O)c1cccc(N2CCNC(c3ccccc3Cl)C2)n1` (centres unmarked) [compound 258], under setting [1], the Ki lay in the range of 50 to 500 nM. Take `CC(C)[C@@H]1CN(c2cccc(C(=O)c3cccnc3N)n2)CCN1` [compound 231]: the Ki lay in the range of 500 to 2800 nM. As for `Nc1ncccc1C(=O)c1nc(N2CCNCC2)ccc1Cl` [compound 315], the Ki under setting [1] lay within 50 to 500 nM. The same measure, in the same setting: with `Nc1ccc(-c2cnc(N)c(C(=O)c3cccc(N4CCCNCC4)n3)c2)cc1` [compound 170] the figure was 50 to 500 nM. Consider `Nc1ncccc1C(=O)c1cccc(N2CCNC(c3ccc(O)cc3)C2)n1` (centres unmarked) [compound 312], for which the Ki under setting [1] lay in the range of 50 to 500 nM.

`COc1cccc(C2CN(c3cccc(C(=O)c4cccnc4N)n3)CCN2)c1` (centres unmarked) [compound 309]: under setting [1], the Ki was in the range of 500 to 2800 nM.

As for `Nc1ncc(-c2ccc(CO)cc2)cc1C(=O)c1cccc(N2CCNC(c3ccccc3)C2)n1` (centres unmarked) [compound 282], the Ki under setting [1] is 50 to 500 nM. Same read-out and setting: with `N#CC1(c2cccc(C(=O)c3cccnc3N)n2)CCNCC1` [compound 280] the figure was 50 to 500 nM; with `Nc1ncccc1C(=O)c1cccc(N2CCNC(c3cccnc3)C2)n1` (centres unmarked) [compound 249], 50 to 500 nM.

On to `C=Cc1cnc(N)c(C(=O)c2cncc(N3CCCNCC3)n2)c1` [compound 165], for which the Ki under setting [1] was 50 to 500 nM. With `Nc1ncccc1C(=O)c1cccc(N2CCCN(C(=O)Cc3ccccc3)CC2)n1` [compound 33], the Ki under setting [1] lay within 50 to 500 nM. Take `Cc1sc(N2CCNC(c3ccccc3)C2)nc1C(=O)c1cccnc1N` (centres unmarked) [compound 256]: the Ki under setting [1] is 500 to 2800 nM.

Turning to `Nc1ncc(-c2csc3ccccc23)cc1C(=O)c1cccc(N2CCCNCC2)n1` [compound 200], under setting [1], the Ki fell in the range of 50 to 500 nM. Regarding `CC(C)C[C@H]1CN(c2ccc(OC(F)F)c(C(=O)c3cccnc3N)n2)CCN1` [compound 356], under setting [1], the Ki was in the range of 50 to 500 nM.

Turning to `Nc1ncccc1C(=O)c1nc(N2CCNC(c3ccccc3)C2)ccc1C(F)(F)F` (centres unmarked) [compound 317], the Ki under setting [1] was 50 to 500 nM. For the compound `Nc1ncccc1C(=O)c1cccc(N2CCNC(c3cccc(C(F)(F)F)c3)C2)n1` (centres unmarked) [compound 314], under setting [1], the Ki lay in the range of 50 to 500 nM. Same read-out and setting: with `Nc1ncccc1C(=O)c1nc(N2CCNC(c3ccccc3)C2)ccc1Cl` (centres unmarked) [compound 321] the figure was 50 to 500 nM. The same measure, in the same setting: with `C[C@H]1CN(c2cccc(C(=O)c3cccnc3N)n2)[C@@H](C)CN1` [compound 218] the figure was 50 to 500 nM.

Consider `CCc1cnc(N)c(C(=O)c2cccc(N3CCCN(C)CC3)n2)c1` [compound 153], for which the Ki under setting [1] was 500 to 2800 nM.

As for `Cc1ccccc1-c1cnc(N)c(C(=O)c2cccc(N3CCCNCC3)n2)c1` [compound 57], the Ki under setting [1] lay in the range of 500 to 2800 nM. Consider `Nc1ncccc1C(=O)c1nc(N2CCCNCC2)cs1` [compound 102], for which the Ki under setting [1] is 50 to 500 nM. For `N#Cc1ccccc1-c1cnc(N)c(C(=O)c2cccc(N3CCNC(c4ccccc4)C3)n2)c1` (centres unmarked) [compound 269], under setting [1], the Ki fell in the range of 50 to 500 nM. As to `CC(C)N1CCN(c2cccc(C(=O)c3cc(Br)cnc3N)n2)CC1` [compound 100], the Ki under setting [1] fell in the range of 50 to 500 nM.
